Read-outs that look alike come from different tables or passages of the source.
Tested on: HIV-1
Conditions: as part of an optimized regimen, plasma HIV-1 RNA
Method: Groups of HIV-1 positive patients were treated (as part of an optimized regimen) with ATC+either LPV or ATV, and compared to patients treated with 3TC+either LPV or ATV. Samples were taken after therapy to determine the number of patients who achieved an undetectable plasma HIV-1 RNA level (<50 copies/mL).

SMILES	Patients achieving <50 copies/mL, % (combined with 150 mg BID 3TC)	Patients achieving <50 copies/mL, n/N (combined with 150 mg BID 3TC)	Patients achieving <50 copies/mL, % (combined with 800 mg BID ATC)	Patients achieving <50 copies/mL, n/N (combined with 800 mg BID ATC)
COC(=O)N[C@H](C(=O)N[C@@H](Cc1ccccc1)[C@@H](O)CN(Cc1ccc(-c2ccccn2)cc1)NC(=O)[C@@H](NC(=O)OC)C(C)(C)C)C(C)(C)C [ATV, methyl N-[(1S)-1-{[(2S,3S)-3-hydroxy-4-[(2S)-2-[(methoxycarbonyl)amino]-3,3-dimethyl-N′-{[4-(pyridin-2-yl)phenyl]methyl}butanehydrazido]-1-phenylbutan-2-yl]carbamoyl}-2,2-dimethylpropyl]carbamate]	42.9%	6/14	66.7%	8/12
Cc1cccc(C)c1OCC(=O)N[C@@H](Cc1ccccc1)[C@@H](O)C[C@H](Cc1ccccc1)NC(=O)[C@H](C(C)C)N1CCCNC1=O [LPV, Lopinavir]	62%	18/29	60%	18/30
